Experimental data published in US20240058343A1, “TREATMENT OF URTICARIA USING JAK INHIBITORS” (Incyte Corporation, priority 2022, published 2024).

Experiments:
[1] = target: human JAK1 (a.a. 837-1142) (Homo sapiens, UniProt P23458); experiment: In vitro JAK kinase assay (HTRF), JAK1; format: biochemical; settings: 1 mM ATP
Protocol: (§1) The catalytic activity of JAK1, JAK2 or JAK3 was assayed by measuring the phosphorylation of a biotinylated peptide. The phosphorylated peptide was detected by homogenous time resolved fluorescence (HTRF). IC5os of compounds are measured for each kinase in the 40 microL reactions that contain the enzyme, ATP and 500 nM peptide in 50 mM Tris (pH 7.8) buffer with 100 mM NaCl, 5 mM DTT, and 0.1 mg/mL (0.01%) BSA. […] Reactions are carried out at room temperature for 1 hour and then stopped with 20 μL 45 mM EDTA, 300 nM SA-APC, 6 nM Eu-Py20 in assay buffer (Perkin Elmer, Boston, MA). Binding to the Europium labeled antibody takes place for 40 minutes and HTRF signal was measured on a Fusion plate reader (Perkin Elmer, Boston, MA).

JAK2 (a.a. 828-1132) = JAK2 (a.a. 828-1132) (Homo sapiens (Human), UniProt O60674); experiment: In vitro JAK kinase assay (HTRF), JAK2, for JAK2/JAK1 ratio; format: biochemical; settings: IC50 ratio at 1 mM ATP
JAK2 (a.a. 828-1132), sequence (O60674 828-1132): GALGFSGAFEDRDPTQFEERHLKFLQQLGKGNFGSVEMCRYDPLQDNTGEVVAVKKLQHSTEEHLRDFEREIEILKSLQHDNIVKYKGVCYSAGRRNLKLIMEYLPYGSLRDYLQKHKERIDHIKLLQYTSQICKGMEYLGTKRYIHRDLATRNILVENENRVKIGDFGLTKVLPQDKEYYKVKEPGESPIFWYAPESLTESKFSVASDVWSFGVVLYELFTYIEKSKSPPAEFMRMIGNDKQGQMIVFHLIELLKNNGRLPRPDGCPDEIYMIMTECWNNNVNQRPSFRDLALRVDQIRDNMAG
Protocol: as §1

## N#CCC1(n2cc(-c3ncnc4[nH]ccc34)cn2)CN([C@H]2CC[C@@H](Oc3cc(CN4CC[C@@H](O)C4)cc(C(F)(F)F)n3)CC2)C1 [compound 21, {1-(cis-4-{[4-{[(3R)-3-hydroxypyrrolidin-1-yl]methyl}-6-(trifluoromethyl)pyridin-2-yl]oxy}cyclohexyl)-3-[4-(7H-pyrrolo[2,3-d]pyrimidin-4-yl)-1H-pyrazol-1-yl]azetidin-3-yl}acetonitrile]
[1]
  IC50: < 10 nM
JAK2 (a.a. 828-1132)
  JAK2/JAK1: >10

## N#CC[C@]1(n2cc(-c3ncnc4[nH]ccc34)cn2)C[C@H](N2CCC(Oc3cc(CN4CCC[C@@H]4CO)cc(C(F)(F)F)n3)CC2)C1 [compound 13, {trans-3-(4-{[4-{[(2R)-2-(hydroxymethyl)pyrroli-din-1-yl]methyl}-6-(trifluoromethyl)pyridin-2-yl]oxy}piperidin-1-yl)-1-[4-(7H-pyrrolo[2,3-d]pyrimidin-4-yl)-1H-pyrazol-1-yl]cyclobutyl}acetonitrile]
[1]
  IC50: < 10 nM
JAK2 (a.a. 828-1132)
  JAK2/JAK1: >10

## N#CCC(CN1CCN(C(=O)c2ccc(C#N)cc2F)CC1)n1ccc(-c2ncnc3[nH]ccc23)c1 (stereo not drawn) [compound 9, 4-[(4-{3-cyano-2-[3-(7H-pyrrolo[2,3-d]pyrimidin-4-yl)-1H-pyrrol-1-yl]propyl}piperazin-1-yl)carbonyl]-3-fluorobenzonitrile]
[1]
  IC50: < 10 nM
JAK2 (a.a. 828-1132)
  JAK2/JAK1: >10

## C[C@H](O)CNCc1cc(OC2CCN([C@H]3C[C@](CC#N)(n4cc(-c5ncnc6[nH]ccc56)cn4)C3)CC2)nc(C(F)(F)F)c1 [compound 25, {trans-3-(4-{[4-({[(2S)-2-hydroxypropyl]amino}methyl)-6-(trifluoromethyl)pyridin-2-yl]oxy}piperidin-1-yl)-1-[4-(7H-pyrrolo[2,3-d]pyrimidin-4-yl)-1H-pyrazol-1-yl]cyclobutyl}acetonitrile]
[1]
  IC50: < 10 nM
JAK2 (a.a. 828-1132)
  JAK2/JAK1: >10

## N#CC[C@]1(n2cc(-c3ncnc4[nH]ccc34)cn2)C[C@H](N2CCN(C(=O)c3ccnc(C(F)(F)F)n3)CC2)C1 [compound 10, [trans-1-[4-(7H-pyrrolo[2,3-d]pyrimidin-4-yl)-1H-pyrazol-1-yl]-3-(4-{[2-(trifluoromethyl)pyrimi-din-4-yl]carbonyl}piperazin-1-yl)cyclobutyl]acetonitrile]
[1]
  IC50: < 10 nM
JAK2 (a.a. 828-1132)
  JAK2/JAK1: >10

## C[C@@H](O)c1nc2cnc3ccsc3c2n1[C@H]1CC[C@H](CC#N)OC1 [compound 5, ((2R,5S)-5-{2-[(1R)-1-hydroxyethyl]-1H-imidazo[4,5-d]thieno[3,2-b]pyridin-1-yl}tetrahydro-2H-pyran-2-yl)acetonitrile]
[1]
  IC50: < 100 nM
JAK2 (a.a. 828-1132)
  JAK2/JAK1: >10

## N#CC[C@]1(n2cc(-c3ncnc4[nH]ccc34)cn2)C[C@H](N2CCC(Oc3cc(CN4CCC[C@H]4CO)cc(C(F)(F)F)n3)CC2)C1 [compound 12, {trans-3-(4-{[4-{[(2S)-2-(hydroxymethyl)pyrroli-din-1-yl]methyl}-6-(trifluoromethyl)pyridin-2-yl]oxy}piperidin-1-yl)-1-[4-(7H-pyrrolo[2,3-d]pyrimidin-4-yl)-1H-pyrazol-1-yl]cyclobutyl}acetonitrile]
[1]
  IC50: < 10 nM
JAK2 (a.a. 828-1132)
  JAK2/JAK1: >10

## N#CCC1(n2cc(-c3ncnc4[nH]ccc34)cn2)CN([C@H]2CC[C@@H](Oc3cc(CCO)nc(C(F)(F)F)n3)CC2)C1 [compound 18, {1-(cis-4-{[6-(2-hydroxyethyl)-2-(trifluoromethyl)pyrimi-din-4-yl]oxy}cyclohexyl)-3-[4-(7H-pyrrolo[2,3-d]pyrimidin-4-yl)-1H-pyrazol-1-yl]azetidin-3-yl}acetonitrile]
[1]
  IC50: < 10 nM
JAK2 (a.a. 828-1132)
  JAK2/JAK1: >10

## C[C@H](NC(=O)c1cc(F)c(N2CC(CC#N)(n3cc(-c4ncnc5[nH]ccc45)cn3)C2)cc1F)C(F)(F)F [compound 16, 4-{3-(cyanomethyl)-3-[4-(7H-pyrrolo[2,3-d]pyrimidin-4-yl)-1H-pyrazol-1-yl]azetidin-1-yl}-2,5-difluoro-N-[(1S)-2,2,2-trifluoro-1-methylethyl)benzamide]
[1]
  IC50: < 10 nM
JAK2 (a.a. 828-1132)
  JAK2/JAK1: >10
